Data on 15 molecules can be found in ChEMBL document CHEMBL1201862, “PubChem BioAssay data set” (2004).

Test systems include SF-268; SF-539; NCI-H522; OVCAR-8; HL-60; NCI-H460; HCC 2998; RXF 393; SK-MEL-28; EKVX; SN12C; HOP-62; CAKI-1; HOP-92; SK-MEL-5.
Common to all, as to experiment: DTP human tumour cell line panel, 48 h

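Step 1: Grow cells in 96-well plates. Step 2: Expose to compound for 48 hours at 5 concentrations. Step 3: Interpolate endpoints linearly; if unreached, use highest concentration. GI50: concentration for 50% inhibition of growth.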 The source made the active and inactive calls. Cut-off read from the data, not from the text of the source: active = GI50 up to about 1.1 µM and inactive = higher.

As for `Brc1ccc(C[N+]23CN4CN(CN(C4)C2)C3)cc1`, the GI50 (usually the concentration at which growth is held to half of that of the control) is 40.2 µM (inactive) with SF-268; 40.3 µM (inactive) in the assay with SF-539; 17.1 µM (inactive) with NCI-H522; 28.3 µM (inactive) in the assay on OVCAR-8; 10.4 µM (inactive) with HL-60; 28.3 µM (inactive) with NCI-H460. Further, the GI50 with HCC 2998 was 47.1 µM (inactive); with RXF 393, 17 µM (inactive); in the assay with SK-MEL-28, 31.3 µM (inactive); with EKVX, > 100 µM (inactive); with SN12C, 24 µM (inactive); in the assay on HOP-62, > 100 µM (inactive).
As for `O=C1OC(CC(=O)c2ccc(Cl)cc2)C(Cl)=C1Cl` (centres undefined), the GI50 in the assay on SF-268 is > 100 µM (inactive); in the assay on SF-539 it was > 100 µM (inactive); in the assay with NCI-H522, 94.8 µM (inactive); with CAKI-1 it was > 100 µM (inactive); with OVCAR-8, > 100 µM (inactive); in the assay with HL-60, 26 µM (inactive). The GI50 in the assay on NCI-H460, in the assay on HCC 2998, in the assay on HOP-92, with SK-MEL-5, in the assay on SK-MEL-28 and with EKVX was > 100 µM (inactive) each time. Further, the GI50 in the assay on SN12C and with HOP-62 was > 100 µM (inactive) throughout.
Turning to `CCOC(=O)[C@H]1Nc2ccccc2C2c3ccccc3CC21` (some centres undefined), the GI50 was > 100 µM (inactive) in the assay with SF-268; > 100 µM (inactive) with SF-539; 16.4 µM (inactive) in the assay with NCI-H522; > 100 µM (inactive) in the assay on CAKI-1; 48.5 µM (inactive) in the assay on OVCAR-8; 38.6 µM (inactive) with NCI-H460. Moreover, the GI50 was 48.3 µM (inactive) in the assay on HCC 2998; 3.3 µM (inactive) with RXF 393; 21.8 µM (inactive) with SK-MEL-5; 34.2 µM (inactive) in the assay with SK-MEL-28; 29.4 µM (inactive) in the assay with SN12C; > 100 µM (inactive) with HOP-62.
As for `O=C(Cc1ccccc1)NN1C(=O)C(Cl)C1c1ccc([N+](=O)[O-])cc1` (centres undefined), the GI50 is > 100 µM (inactive) with SF-268; 25.1 µM (inactive) with NCI-H522; > 100 µM (inactive) in the assay with CAKI-1; > 100 µM (inactive) with OVCAR-8; 70.5 µM (inactive) in the assay on HL-60; > 100 µM (inactive) in the assay on NCI-H460. The GI50 was > 100 µM (inactive) in the assay on HCC 2998; 84.9 µM (inactive) in the assay with RXF 393; 49.1 µM (inactive) in the assay on SK-MEL-5; > 100 µM (inactive) with SK-MEL-28; > 100 µM (inactive) in the assay on EKVX; 96.4 µM (inactive) in the assay with SN12C. The GI50 in the assay on HOP-62 is > 100 µM (inactive).
In the case of `COC1C(CN[N+](=O)CC2OC3OC(C)(C)OC3C2OC)OC2OC(C)(C)OC21` (centres undefined), the GI50 in the assay on SF-268, with SF-539, in the assay with CAKI-1, with OVCAR-8, in the assay with HL-60 and in the assay with NCI-H460 was > 100 µM (inactive) throughout. The GI50 in the assay with HCC 2998, in the assay on RXF 393, in the assay with HOP-92, with SK-MEL-5, in the assay on SK-MEL-28 and with EKVX was > 100 µM (inactive) throughout. For the same molecule, the GI50 with SN12C and with HOP-62 was > 100 µM (inactive) each time.
With `COc1nc(=O)n(COC(CO)CN2C(=O)c3ccccc3C2=O)cc1Cc1cccc(OCc2ccccc2)c1` (centres undefined), the GI50 in the assay on SF-539 is 16.6 µM (inactive); in the assay on OVCAR-8, 34.5 µM (inactive); with HL-60, 21.1 µM (inactive); in the assay on HCC 2998, 20.7 µM (inactive); in the assay on HOP-92, 21 µM (inactive); in the assay on SK-MEL-5, 15.7 µM (inactive). Further, the results for the GI50 with SK-MEL-28, in the assay on EKVX and in the assay with SN12C were 17.2 µM (inactive), 33.8 µM (inactive) and 22 µM (inactive), respectively.
As for `COc1cc2c(cc1OC)C(=O)Cc1ccc(OC)c(OC)c1CN(C)CC2`, the GI50 in the assay with SF-268 is > 100 µM (inactive); in the assay on SF-539, > 100 µM (inactive); in the assay with NCI-H522, > 100 µM (inactive); in the assay on CAKI-1 it was > 100 µM (inactive); in the assay on OVCAR-8, > 100 µM (inactive); with NCI-H460, 15.6 µM (inactive). For the same molecule, the GI50 with HCC 2998 is > 100 µM (inactive); in the assay on HOP-92, 20.5 µM (inactive); in the assay with SK-MEL-5, > 100 µM (inactive); with SK-MEL-28 it was > 100 µM (inactive); in the assay on EKVX, > 100 µM (inactive); in the assay on SN12C, > 100 µM (inactive). Further, in the assay on HOP-62, the GI50 was > 100 µM (inactive).
Regarding `Cc1nc2ccncc2[nH]1`, the GI50 with SF-268, in the assay on SF-539, in the assay with CAKI-1, in the assay on OVCAR-8, in the assay with HL-60 and in the assay with NCI-H460 was > 100 µM (inactive) each time. The GI50 with HCC 2998, in the assay on RXF 393, in the assay on SK-MEL-5, in the assay on SK-MEL-28, in the assay with EKVX and in the assay with SN12C was > 100 µM (inactive) in each case. For the same molecule, in the assay on HOP-62, the GI50 is > 100 µM (inactive).
For the molecule `COc1ccc(C2=NN(c3ccccc3)C[N+](c3ccc(OC)cc3)=N2)cc1`, the GI50 in the assay on SF-268 is 35.9 µM (inactive); in the assay with NCI-H522 it was 15.1 µM (inactive); with OVCAR-8 it was 85.7 µM (inactive); in the assay on HL-60, 24 µM (inactive); in the assay with NCI-H460, 47.5 µM (inactive); in the assay on HCC 2998, 37.8 µM (inactive). For the same molecule, the GI50 in the assay on RXF 393 is 26 µM (inactive); in the assay on SK-MEL-5, 14.7 µM (inactive); in the assay with SK-MEL-28, 26.9 µM (inactive); in the assay on EKVX, 33.8 µM (inactive); in the assay with SN12C, 54.1 µM (inactive); in the assay on HOP-62, 66.1 µM (inactive).
In the case of `N#Cc1cccc(N2C(=O)c3ccc(C(=O)c4ccc5c(c4)C(=O)N(c4cccc(C#N)c4)C5=O)cc3C2=O)c1`, the GI50 with SF-268, in the assay on SF-539, with NCI-H522, in the assay on CAKI-1, in the assay on OVCAR-8 and with HL-60 was > 100 µM (inactive) each time. Also, the GI50 in the assay on NCI-H460 is > 100 µM (inactive); in the assay on RXF 393, > 100 µM (inactive); in the assay on HOP-92 it was 59 µM (inactive); with SK-MEL-5, > 100 µM (inactive); in the assay on EKVX, > 100 µM (inactive); with SN12C, > 100 µM (inactive). For the same molecule, in the assay on HOP-62, the GI50 is > 100 µM (inactive).
Regarding `CCOC(=O)Cn1c(=O)n(C)c(=O)c2[nH]cnc21`, the GI50 in the assay on SF-268, in the assay on SF-539, with NCI-H522, in the assay with CAKI-1, in the assay on OVCAR-8 and in the assay on NCI-H460 was > 100 µM (inactive) each time. Further, the GI50 in the assay with HOP-92, in the assay on SK-MEL-5, in the assay with SK-MEL-28, in the assay on EKVX, in the assay with SN12C and in the assay on HOP-62 was > 100 µM (inactive) each time.
On to `COC(=O)c1ccc(CS(=O)(=O)c2ccccc2)cc1`, for which the GI50 with SF-268 is > 100 µM (inactive); in the assay on SF-539, > 100 µM (inactive); with CAKI-1 it was > 100 µM (inactive); in the assay on OVCAR-8, > 100 µM (inactive); in the assay with HL-60, 76.6 µM (inactive); in the assay with NCI-H460, 66.1 µM (inactive). Besides, the GI50 with HCC 2998 is > 100 µM (inactive); in the assay with RXF 393 it was > 100 µM (inactive); with HOP-92, > 100 µM (inactive); with SK-MEL-5 it was 55.8 µM (inactive); in the assay with SK-MEL-28, > 100 µM (inactive); in the assay on EKVX, > 100 µM (inactive). Besides, the GI50 with SN12C and in the assay with HOP-62 was > 100 µM (inactive) each time.
Regarding `COc1ccccc1/C=C1\C(=O)N(C(=O)Cc2ccccc2)N=C1C`, the GI50 in the assay on SF-268, with SF-539, in the assay on NCI-H522, in the assay on CAKI-1, with OVCAR-8 and with HL-60 was > 100 µM (inactive) throughout. Besides, the GI50 in the assay on NCI-H460, in the assay with HCC 2998, in the assay on SK-MEL-5, in the assay on SK-MEL-28, in the assay with EKVX and in the assay on SN12C was > 100 µM (inactive) each time. Also, the GI50 in the assay on HOP-62 is > 100 µM (inactive).
In the case of `C/C=C(\NC(=O)C(CCCCN)NC(=O)C(C)NC(=O)C1CSC(C)C(NC(=O)C2CSCC(NC(=O)C(C)NC(=O)C(N)C(C)CC)C(=O)NC(CCCCN)C(=O)NC(Cc3ccccc3)C(=O)NC(CC(C)C)C(=O)N2)C(=O)N2CCCC2C(=O)NCC(=O)N1)C(=O)NCC(=O)NC1CSCC2NC(=O)C(Cc3ccc(O)cc3)NC(=O)C(CSC=CNC2=O)NC(=O)C(CC(N)=O)NC(=O)C(Cc2ccccc2)NC1=O` (centres undefined), the GI50 with SF-268 is 33.4 µM (inactive); with SF-539 it was > 100 µM (inactive); with OVCAR-8 it was > 100 µM (inactive); with HL-60, > 100 µM (inactive); in the assay on NCI-H460, 75.3 µM (inactive); in the assay with HCC 2998 it was > 100 µM (inactive). The GI50 in the assay on RXF 393 is > 100 µM (inactive); in the assay on SK-MEL-5, 19.6 µM (inactive); in the assay on SK-MEL-28, 78.3 µM (inactive); in the assay on EKVX it was 52.2 µM (inactive); in the assay with SN12C, > 100 µM (inactive); in the assay on HOP-62 it was < 0.01 µM (active).
On to `COc1ccc(/C(=N/NC(N)=O)C2(O)C(=O)Nc3ccc([N+](=O)[O-])cc32)cc1` (centres undefined), for which the GI50 is 18.5 µM (inactive) with SF-268; 15.7 µM (inactive) with SF-539; 21.8 µM (inactive) in the assay on NCI-H522; 24.2 µM (inactive) in the assay with CAKI-1; 22.3 µM (inactive) in the assay with OVCAR-8; 19.3 µM (inactive) with NCI-H460. Moreover, the GI50 in the assay with HCC 2998 was 37.3 µM (inactive); with HOP-92, 22.4 µM (inactive); in the assay on SK-MEL-5, 27.3 µM (inactive); in the assay on SK-MEL-28 it was 20 µM (inactive); with EKVX it was > 100 µM (inactive); with SN12C, > 10 µM (inactive). Besides, the GI50 in the assay on HOP-62 was 28.2 µM (inactive).
